For one experiment, the target named is T1, Recombinant human HDAC6 (Homo sapiens, UniProt Q9UBN7).
T1 construct: full length, MW=159 kDa; GST (N); host or cells: Sf9 insect cells (baculovirus)
T1 sequence (Q9UBN7 1-1215): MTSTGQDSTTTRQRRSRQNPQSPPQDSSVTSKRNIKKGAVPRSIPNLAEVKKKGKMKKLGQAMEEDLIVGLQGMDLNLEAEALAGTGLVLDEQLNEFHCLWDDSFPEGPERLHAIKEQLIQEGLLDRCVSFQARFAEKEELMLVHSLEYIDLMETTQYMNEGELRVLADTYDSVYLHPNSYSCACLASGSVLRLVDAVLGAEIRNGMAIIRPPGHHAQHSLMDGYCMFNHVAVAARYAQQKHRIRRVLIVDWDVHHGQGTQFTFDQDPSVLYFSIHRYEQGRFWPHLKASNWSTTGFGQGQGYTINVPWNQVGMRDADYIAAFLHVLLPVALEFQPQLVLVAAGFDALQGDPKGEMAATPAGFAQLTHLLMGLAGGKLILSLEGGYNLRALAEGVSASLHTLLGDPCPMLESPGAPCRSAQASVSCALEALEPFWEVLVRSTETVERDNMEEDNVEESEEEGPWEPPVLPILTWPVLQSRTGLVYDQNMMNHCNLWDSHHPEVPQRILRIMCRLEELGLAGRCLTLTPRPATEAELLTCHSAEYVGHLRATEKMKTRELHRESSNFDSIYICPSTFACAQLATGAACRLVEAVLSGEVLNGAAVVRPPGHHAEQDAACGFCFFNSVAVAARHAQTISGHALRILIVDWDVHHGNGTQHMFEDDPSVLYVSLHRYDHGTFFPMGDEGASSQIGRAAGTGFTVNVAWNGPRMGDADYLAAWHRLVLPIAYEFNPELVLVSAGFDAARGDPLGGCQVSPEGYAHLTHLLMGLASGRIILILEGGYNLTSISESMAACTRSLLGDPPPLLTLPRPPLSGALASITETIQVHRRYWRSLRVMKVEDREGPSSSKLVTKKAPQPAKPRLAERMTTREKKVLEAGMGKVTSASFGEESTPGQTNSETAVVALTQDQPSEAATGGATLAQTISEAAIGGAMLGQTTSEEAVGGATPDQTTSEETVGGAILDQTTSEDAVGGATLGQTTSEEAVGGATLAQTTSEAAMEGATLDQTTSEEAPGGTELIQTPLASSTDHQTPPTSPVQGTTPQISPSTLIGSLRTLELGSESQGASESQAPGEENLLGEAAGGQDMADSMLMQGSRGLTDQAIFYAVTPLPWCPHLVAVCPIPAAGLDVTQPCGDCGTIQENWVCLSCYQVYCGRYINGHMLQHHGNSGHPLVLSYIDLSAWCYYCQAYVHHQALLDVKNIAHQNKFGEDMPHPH
Nature of the experiment: HDAC6 biochemical assay, AMC-labeled peptide substrate. As to conditions: HDAC6; read-out: HDAC Isoform IC50 (nM) 6. The method in brief: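 Two-step fluorogenic read-out: enzyme deacetylates 50 μM RHKK(Ac)AMC for 1 h at 30° C in pH 8.0 Tris buffer with BSA and 1% DMSO, then developer cleavage gives signal at Ex 360/Em 460. Enzyme: 0.3 ng/ul recombinant full-length human HDAC6, GST-tagged, Sf9-expressed.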

The next experiment concerns the target T2, Human HDAC4 (Homo sapiens, UniProt P56524).
T2 construct: amino acids 627-1085 with N-terminal GST tag; GST (N); host or cells: baculovirus expression system
Nature of the experiment: HDAC4 biochemical assay, class IIa-specific substrate. The following applies: read-out: HDAC Isoform IC50 (nM) 4. In a few lines:
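Two-step fluorogenic read-out: deacetylated BOC-Lys(trifluoroacetyl)-AMC (50 μM) was digested by developer and measured at Ex/Em 360/460. Deacetylation by 0.004 ng/ul HDAC4 (aa 627-1085, N-terminal GST) ran 30 min at room temperature, pH 8.0 Tris buffer, 1 mg/mL BSA, 1% DMSO.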

The target of a further experiment is T3, Human HDAC7 (Homo sapiens, UniProt Q8WUI4).
T3 construct: (a.a. 518-end) with N-terminal GST tag; GST (N); host or cells: baculovirus expression system
T3 sequence (Q8WUI4 518-952 limits assumed): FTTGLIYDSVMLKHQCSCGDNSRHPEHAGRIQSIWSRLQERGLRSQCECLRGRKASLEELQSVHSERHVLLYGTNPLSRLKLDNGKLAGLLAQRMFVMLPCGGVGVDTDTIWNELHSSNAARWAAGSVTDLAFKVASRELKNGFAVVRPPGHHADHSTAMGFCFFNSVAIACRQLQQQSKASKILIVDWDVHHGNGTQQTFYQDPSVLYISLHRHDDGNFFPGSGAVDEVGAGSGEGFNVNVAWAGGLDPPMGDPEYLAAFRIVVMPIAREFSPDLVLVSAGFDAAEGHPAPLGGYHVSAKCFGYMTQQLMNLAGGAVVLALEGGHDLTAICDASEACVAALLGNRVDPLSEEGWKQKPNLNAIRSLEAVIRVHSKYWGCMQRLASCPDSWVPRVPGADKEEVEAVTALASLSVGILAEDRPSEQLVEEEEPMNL
In words: HDAC7 biochemical assay, class IIa-specific substrate. The following applies: read-out: HDAC Isoform IC50 (nM) 7. The method in brief:
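Two-step fluorogenic readout: class IIa-selective trifluoroacetyl-lysine AMC substrate (50 μM) deacetylated by N-terminal GST-HDAC7 fragment (0.001 ng/ul), then digested by developer, Ex/Em 360/460. Reaction: 30 min, room temperature, Tris-HCl pH 8.0, NaCl/KCl/MgCl2, 1 mg/mL BSA, 1% DMSO.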

The target of a further experiment is T4, Human HDAC5 (Homo sapiens, UniProt Q9UQL6).
T4 construct: full length with C-terminal His tag, MW=51.1 kDa; His (C); host or cells: baculovirus expression system
In words: HDAC5 biochemical assay, class IIa-specific substrate. As to conditions: read-out: HDAC Isoform IC50 (nM) 5. The method in brief: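 Two-step fluorogenic read-out: deacetylated trifluoroacetyl-lysine AMC substrate (50 μM) digested by developer, measured at Ex/Em 360/460. Deacetylation step: 0.05 ng/ul His-tagged full-length baculoviral enzyme with compound, 30 min, room temperature, pH 8.0 Tris with 1 mg/mL BSA and 1% DMSO.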

The next experiment has as its target T5, Human HDAC1 (Homo sapiens, UniProt Q13547).
T5 construct: full length with C-terminal His-tag and C-terminal FLAG-tag; His (C); FLAG (C); host or cells: baculovirus expression system
In words: HDAC1 biochemical assay, AMC-labeled peptide substrate. The following applies: read-out: HDAC Isoform IC50 (nM) 1. The method in brief:
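Two-step fluorogenic read: HDAC1 deacetylates 50 μM acetyl-lysine AMC peptide RHKK(Ac)AMC for 1 h at 30° C (pH 8.0, 1% DMSO, with compound), then developer digests the product for fluorescence at Ex/Em 360/460. Enzyme is full-length human, His/FLAG-tagged, insect-cell expressed, at 0.3 ng/ul.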

The next experiment concerns the target T6, Human HDAC9 (Homo sapiens, UniProt Q9UKV0).
T6 construct: amino acids 604-1066 with C-terminal His tag; His (C); host or cells: baculovirus expression system
In words: HDAC9 biochemical assay, class IIa-specific substrate. The following applies: read-out: HDAC Isoform IC50 (nM) 9. In a few lines:
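HDAC9 residues 604-1066 (C-terminal His tag, baculovirus-expressed) at 0.06 ng/ul with 50 μM class IIa substrate Boc-Lys(trifluoroacetyl)-AMC in Tris-HCl pH 8.0 buffer with BSA and 1% DMSO. 30 min at room temperature, then developer added; fluorescence read at 360/460 nm Ex/Em.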

Results on 10 molecules are retold here after patent publication US20210038607A1, “OXADIAZOLYLTHIOPHENE DERIVATIVES USEFUL AS HISTONE DEACETYLASE INHIBITORS” (Karus Therapeutics Limited, priority 2018, published 2021).

The structures appear in SMILES notation.

T2 sequence (P56524 627-1084 limits assumed): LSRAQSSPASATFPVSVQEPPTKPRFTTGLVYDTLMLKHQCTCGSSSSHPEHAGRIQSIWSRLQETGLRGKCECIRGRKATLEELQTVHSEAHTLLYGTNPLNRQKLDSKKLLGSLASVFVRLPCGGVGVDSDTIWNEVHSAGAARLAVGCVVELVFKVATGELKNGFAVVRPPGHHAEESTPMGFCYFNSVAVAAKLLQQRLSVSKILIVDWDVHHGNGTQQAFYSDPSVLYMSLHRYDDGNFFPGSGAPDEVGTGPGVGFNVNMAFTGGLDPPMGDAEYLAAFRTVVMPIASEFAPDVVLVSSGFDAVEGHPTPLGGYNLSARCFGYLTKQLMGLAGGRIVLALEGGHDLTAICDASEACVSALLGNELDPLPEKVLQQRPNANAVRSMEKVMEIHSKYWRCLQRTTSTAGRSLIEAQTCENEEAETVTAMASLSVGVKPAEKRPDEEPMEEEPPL
T5 sequence (Q13547 whole entry): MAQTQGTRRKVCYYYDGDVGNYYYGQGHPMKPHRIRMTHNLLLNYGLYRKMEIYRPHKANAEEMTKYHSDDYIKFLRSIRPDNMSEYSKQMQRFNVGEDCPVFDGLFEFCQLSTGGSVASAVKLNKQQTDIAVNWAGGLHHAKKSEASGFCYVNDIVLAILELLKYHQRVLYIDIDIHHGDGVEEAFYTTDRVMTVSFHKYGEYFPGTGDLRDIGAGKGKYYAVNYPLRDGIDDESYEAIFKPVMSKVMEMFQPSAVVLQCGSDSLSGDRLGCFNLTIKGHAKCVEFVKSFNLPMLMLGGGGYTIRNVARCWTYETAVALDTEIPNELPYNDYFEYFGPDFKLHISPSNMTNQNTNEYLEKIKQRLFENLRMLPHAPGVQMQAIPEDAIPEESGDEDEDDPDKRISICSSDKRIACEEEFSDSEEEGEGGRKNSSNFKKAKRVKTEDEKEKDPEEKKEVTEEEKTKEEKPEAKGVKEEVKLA
T4 sequence (Q9UQL6 656-1122 limits assumed): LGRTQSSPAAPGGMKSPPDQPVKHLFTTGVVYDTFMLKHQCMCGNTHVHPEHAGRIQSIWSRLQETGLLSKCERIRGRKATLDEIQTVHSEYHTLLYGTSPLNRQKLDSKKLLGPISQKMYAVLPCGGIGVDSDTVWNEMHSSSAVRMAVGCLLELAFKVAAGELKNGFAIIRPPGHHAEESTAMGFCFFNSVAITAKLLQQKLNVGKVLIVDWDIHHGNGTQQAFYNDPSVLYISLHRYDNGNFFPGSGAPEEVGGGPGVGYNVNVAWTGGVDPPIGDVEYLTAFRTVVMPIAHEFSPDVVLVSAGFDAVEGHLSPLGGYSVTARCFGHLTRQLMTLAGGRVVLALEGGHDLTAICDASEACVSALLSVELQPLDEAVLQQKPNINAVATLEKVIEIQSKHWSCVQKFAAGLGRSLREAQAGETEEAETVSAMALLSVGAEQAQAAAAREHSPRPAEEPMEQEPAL
T6 sequence (Q9UKV0 604-1066 isoform Q9UKV0-5): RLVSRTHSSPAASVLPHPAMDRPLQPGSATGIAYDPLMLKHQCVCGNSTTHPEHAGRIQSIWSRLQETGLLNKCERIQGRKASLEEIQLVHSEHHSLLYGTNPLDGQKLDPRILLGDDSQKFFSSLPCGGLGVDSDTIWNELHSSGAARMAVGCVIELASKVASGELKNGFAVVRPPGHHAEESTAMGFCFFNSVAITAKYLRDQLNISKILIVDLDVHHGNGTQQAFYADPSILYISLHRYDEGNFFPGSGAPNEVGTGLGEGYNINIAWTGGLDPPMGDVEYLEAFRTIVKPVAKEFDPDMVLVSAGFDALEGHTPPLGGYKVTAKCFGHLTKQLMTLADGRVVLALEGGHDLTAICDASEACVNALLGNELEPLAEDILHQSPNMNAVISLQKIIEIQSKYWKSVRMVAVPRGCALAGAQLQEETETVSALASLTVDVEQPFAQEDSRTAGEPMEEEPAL

In general, IC50 refers to the point on the concentration scale where inhibition reaches its midpoint. In the case of `Cc1nc(N2CCCC2)cc(N(Cc2ccc(-c3noc(C(F)(F)F)n3)s2)c2cnccn2)n1` [Example CQ, 2-Methyl-N-(pyrazin-2-yl)-6-(pyrrolidin-1-yl)-N-({5-[5-(trifluoromethyl)-1,2,4-oxadiazol-3-yl]thiophen-2-yl}methyl)pyrimidin-4-amine], the IC50 is ≤ 10000 nM at Recombinant human HDAC6; ≤ 10000 nM on Human HDAC4; ≤ 10000 nM at Human HDAC7; ≤ 10000 nM on Human HDAC5; > 10000 nM at Human HDAC1; ≤ 10000 nM at Human HDAC9.

Take `Cc1ncc(N(Cc2ccc(-c3noc(C(F)(F)F)n3)s2)c2cnccn2)cn1` [Example CS, 2-Methyl-N-(pyrazin-2-yl)-N-({5-[5-(trifluoromethyl)-1,2,4-oxadiazol-3-yl]thiophen-2-yl}methyl)pyrimidin-5-amine]: the IC50 at Recombinant human HDAC6 was ≤ 1000 nM; at Human HDAC4, ≤ 500 nM; on Human HDAC7, ≤ 500 nM; on Human HDAC5, ≤ 1000 nM; on Human HDAC1, ≤ 10000 nM; at Human HDAC9, ≤ 10000 nM.

`COc1ncc(N(Cc2ccc(-c3noc(C(F)(F)F)n3)s2)c2cnccn2)cn1` [Example CT, 2-Methoxy-N-(pyrazin-2-yl)-N-({5-[5-(trifluoromethyl)-1,2,4-oxadiazol-3-yl]thiophen-2-yl}methyl)pyrimidin-5-amine]: the 50% inhibitory concentration (IC50) is ≤ 10000 nM on Recombinant human HDAC6; ≤ 500 nM on Human HDAC4; ≤ 500 nM on Human HDAC7; ≤ 500 nM at Human HDAC5; > 10000 nM at Human HDAC1; ≤ 1000 nM on Human HDAC9.

In the case of `FC(F)(F)c1nc(-c2ccc(CN(c3cnc(C4CC4)nc3)c3cnccn3)s2)no1` [Example CU, 2-Cyclopropyl-N-(pyrazin-2-yl)-N-({5-[5-(trifluoromethyl)-1,2,4-oxadiazol-3-yl]thiophen-2-yl}methyl)pyrimidin-5-amine], the IC50 was ≤ 10000 nM at Recombinant human HDAC6; ≤ 500 nM on Human HDAC4; ≤ 1000 nM at Human HDAC7; ≤ 1000 nM on Human HDAC5; > 10000 nM on Human HDAC1; ≤ 10000 nM at Human HDAC9.

As to `FC(F)(F)c1ncc(N(Cc2ccc(-c3noc(C(F)(F)F)n3)s2)c2cnccn2)cn1` [Example CV, N-(Pyrazin-2-yl)-2-(trifluoromethyl)-N-({5-[5-(trifluoromethyl)-1,2,4-oxadiazol-3-yl]thiophen-2-yl}methyl)pyrimidin-5-amine], the IC50 on Recombinant human HDAC6 was ≤ 10000 nM; on Human HDAC4, ≤ 1000 nM; on Human HDAC7 it was ≤ 1000 nM; on Human HDAC5, ≤ 1000 nM; at Human HDAC1 it was > 10000 nM; at Human HDAC9, ≤ 10000 nM.

Consider `CS(=O)(=O)c1ncc(N(Cc2ccc(-c3noc(C(F)(F)F)n3)s2)c2cnccn2)cn1` [Example CW, 2-Methanesulfonyl-N-(pyrazin-2-yl)-N-({5-[5-(trifluoromethyl)-1,2,4-oxadiazol-3-yl]thiophen-2-yl}methyl)pyrimidin-5-amine], for which the IC50 was ≤ 10000 nM on Recombinant human HDAC6; ≤ 500 nM on Human HDAC4; ≤ 500 nM on Human HDAC7; ≤ 500 nM on Human HDAC5; > 10000 nM at Human HDAC1; ≤ 10000 nM at Human HDAC9.

With `Cc1ncncc1N(Cc1ccc(-c2noc(C(F)(F)F)n2)s1)c1cnccn1` [Example CX, 4-Methyl-N-(pyrazin-2-yl)-N-({5-[5-(trifluoromethyl)-1,2,4-oxadiazol-3-yl]thiophen-2-yl}methyl)pyrimidin-5-amine], the IC50 on Recombinant human HDAC6 was ≤ 10000 nM; on Human HDAC4 it was ≤ 500 nM; at Human HDAC7, ≤ 500 nM; at Human HDAC5 it was ≤ 500 nM; at Human HDAC1, > 10000 nM; at Human HDAC9, ≤ 1000 nM.

Take `COc1ncncc1N(Cc1ccc(-c2noc(C(F)(F)F)n2)s1)c1cnccn1` [Example CY, 4-Methoxy-N-(pyrazin-2-yl)-N-({5-[5-(trifluoromethyl)-1,2,4-oxadiazol-3-yl]thiophen-2-yl}methyl)pyrimidin-5-amine]: the IC50 at Recombinant human HDAC6 is ≤ 10000 nM; at Human HDAC4 it was ≤ 1000 nM; at Human HDAC7 it was ≤ 10000 nM; at Human HDAC5, ≤ 500 nM; at Human HDAC1 it was > 10000 nM; on Human HDAC9, ≤ 10000 nM.

In the case of `FC(F)(F)c1nc(-c2ccc(CN(c3cnccn3)c3cncnc3C3CC3)s2)no1` [Example CZ, 4-Cyclopropyl-N-(pyrazin-2-yl)-N-({5-[5-(trifluoromethyl)-1,2,4-oxadiazol-3-yl]thiophen-2-yl}methyl)pyrimidin-5-amine], the IC50 on Recombinant human HDAC6 is ≤ 10000 nM; on Human HDAC4, ≤ 500 nM; at Human HDAC7, ≤ 500 nM; on Human HDAC5, ≤ 500 nM; at Human HDAC1 it was > 10000 nM; on Human HDAC9, ≤ 1000 nM.

Take `FC(F)(F)c1nc(-c2ccc(CN(c3cnccn3)c3cncnc3C(F)(F)F)s2)no1` [Example DA, N-(Pyrazin-2-yl)-4-(trifluoromethyl)-N-({5-[5-(trifluoromethyl)-1,2,4-oxadiazol-3-yl]thiophen-2-yl}methyl)pyrimidin-5-amine]: the IC50 on Recombinant human HDAC6 was ≤ 10000 nM; on Human HDAC4, ≤ 1000 nM; at Human HDAC7 it was ≤ 10000 nM; at Human HDAC5 it was ≤ 10000 nM; at Human HDAC1, > 10000 nM; at Human HDAC9, ≤ 10000 nM.
